Consider three compounds from patent US9624266B2, “Brachiatin D and process for production thereof” (COUNCIL OF SCIENTIFIC & INDUSTRIAL RESEARCH, priority 2013, dated 2017).

By inhibition is commonly meant the change of the read-out against control, counted positive when it falls.

One data set concerns A-549. Kind of data set: cells. The class given is cell-based, human. As to conditions: for % growth inhibition: A-549, 20 μM, 20 µM; for % age growth inhibition: A-549, 10 μM, 10 µM. Here is the method: (§1) For Cytotoxic assay, the MTT assay is useful for measuring the effect of a wide range of compounds on the in vitro growth of either normal or cancer cell lines. The assay was set up in a 96-well, flat-bottomed polystyrene microtiter plate. 3-5000 cancer cells were suspended per well in appropriate growth medium, and the cells were added in duplicate wells (triplicates were preferred). It was preferable to add the cells to the required number of wells in the plate prior to adding the peptaibol. After the cells were added to the plate, it was placed on an incubator for overnight incubation. After overnight incubation, the peptaibol was added at defined concentrations of 10, 20 and 50 μM to each set of duplicate wells and incubated for 48 hrs in CO2 incubator. The peptaibol was dissolved in dimethyl sulfoxide (DMSO) for the final addition. After 48 hr incubation, the MTT stock solution (2.5 μg/ml) was diluted with an equal volume of tissue culture medium and 20 μl of this solution was added directly to each well with a multichannel pipette. The plates were returned to the incubator for a period of at least 4 h. After 4 hr incubation, the plates were centrifuged at 1000 rpm for 10 min at ambient temperature, followed by inversion of the plates and blotting of excess medium. 150 μl of working DMSO was added to solubilize the MTT formazan product. A standard micro plate reader with adjustable wavelength across the visible spectrum was used. The OD values at 570 nm obtained for each set of triplicates corresponding to a specific concentration of a peptaibol was then transferred into a spreadsheet program.
(§2) Cytotoxicity assay was performed on a panel of cancer cell lines using fraction 4 (HF-4) as a test material. In order to determine their effect on cell proliferation, A-549 (lung cell line), HEP-2 (liver cell line), MCF-7 (breast cell line), monkey normal cell line (CV-1), OVCAR-5 (ovary cell line) and THP-1 (leukemia cell line) were treated at indicated concentration of 50 μM for 48 h. […] 5-flurouracil and adriyamycin were used as the positive controls; 5-flurouracil inhibited the growth of lung and leukemia cancer cell lines upto 75% and 83% respectively. Moreover adriyamycin used at 1 μM could inhibit the proliferation of MCF-7 cells upto 73%.
(§3) Cytotoxicity assay based on MTT was performed on a panel of cancer cell lines using brachiatin D as a test material. […] 5-flurouracil and adriyamycin were used as the positive controls; 5-flurouracil inhibited the growth of lung and leukemia cancer cell lines upto 73%, […] 88% respectively. Adriyamycin used at 1 μM could inhibit the proliferation of MCF-7 cells upto 77%.

A further data set relates to THP-1. Kind of data set: cells. It counts as cell-based, human. The note with it: for % growth inhibition: THP-1, 20 μM, 20 µM. On the procedure: as §1, §2, §3
The test system of a further data set is HOP-62. The experiment in a line: MTT cytotoxicity assay, HOP-62 lung cell line. The class given is cell-based, human. On the procedure:
as §1, §3
For orientation: Formazan colour is commonly taken as a measure of viable cells.

A further data set deals with MCF-7. Kind of data set: MTT cytotoxicity assay, MCF-7 breast cell line. The class given is cell-based, human. The note with it: for % growth inhibition: MCF-7, 1 μM. Here is the method: as §1
Cytotoxicity assay was performed on a panel of cancer cell lines using fraction 4 (HF-4) as a test material. In order to determine their effect on cell proliferation, A-549 (lung cell line), HEP-2 (liver cell line), MCF-7 (breast cell line), monkey normal cell line (CV-1), OVCAR-5 (ovary cell line) and THP-1 (leukemia cell line) were treated at indicated concentration of 50 μM for 48 h. […]

In another data set the test system is MiaPaCa-2. Kind of data set: MTT cytotoxicity assay, MiaPaCa-2 pancreatic cell line. The note with it: MiaPaCa-2, 10 μM. It counts as cell-based, human. Here is the method: as §1, with “150 μl of working DMSO was added to solubilize the MTT formazan product.” left out, “The OD values at 570 nm obtained for each set of triplicates corresponding to a specific concentration of a peptaibol was then transferred into a spreadsheet program.” left out

A further data set deals with PC-3. Kind of data set: MTT cytotoxicity assay, PC-3 prostate cell line. As to conditions: PC-3, 10 μM. It counts as cell-based, human. On the procedure:
as §1, with “150 μl of working DMSO was added to solubilize the MTT formazan product.” left out, “The OD values at 570 nm obtained for each set of triplicates corresponding to a specific concentration of a peptaibol was then transferred into a spreadsheet program.” left out

A further data set has as its system lymphocyte proliferation. Kind of data set: Lymphocyte proliferation assay (splenocytes, MTT). The class given is cell-based, mice. The note with it: concentration range 0.001 μM-10 μM. The source says: For Lymphocyte Proliferation Assay, the organic crude extract and then the purified peptaibol was taken for lymphocyte proliferation assay to check their activity by the following procedure. The mice spleen was collected from a live animal after sacrificing it under aseptic conditions in HBSS. The spleen was then minced using a pair of scissors and passed through a fine steel mesh to obtain a homogeneous cell suspension and the erythrocytes were lysed with ammonium chloride (0.8%, w/v). After centrifugation (380×g at 4° C. for 10 min), the pelleted cells were washed three times with PBS and resuspended in complete medium [RPMI 1640 supplemented with 12 mM HEPES (pH 7.1), 0.05 mM 2-mercaptoethanol, 100 IU/mL penicillin, 100 µg/mL streptomycin and 10% FCS]. The cell number was counted with a haemocytometer by the trypan blue dye exclusion technique. Cell viability exceeded 95%.
Splenocytes (2×10^6 cells) were then seeded into a 96-well flat-bottom microtiter plate in 100 μl complete medium. Thereafter, variable doses of the test material along with LPS (1 μg/ml) to stimulate B cell proliferation were added giving a final volume of 200 μl. Test materials used in this assay were variable doses of the purified peptaibol (0.001, 0.01 and 0.1 μM). […] 200 μl of DMSO (192 μl DMSO with 8 μl IN HCl) was added to each well, and the absorbance was determined in an ELISA reader at 570 nm after 15 min. […]

The next data set deals with TNF-α. Kind of data set: TNF-α in LPS stimulated cell culture supernatant (ELISA). It counts as cell-based, mouse. The note with it: LPS 1 μg/ml, 24 h, dose dependent, 0.001-0.1 dose range. On the procedure:
(§4) For the estimation of pro-inflammatory cytokines (TNF-α, IL-1β and IL-6) in spleen cell culture supernatant, the splenocytes (2×10^6 cells) were seeded into a 96-well flat-bottom microtiter plate in 100 μl complete medium [RPMI 1640 supplemented with 12 mM HEPES (pH 7.1), 0.05 mM 2-mercaptoethanol, 100 IU/mL penicillin, 100 μg/mL streptomycin and 10% FCS]. Thereafter, variable does of purified peptaibol (brachiatin D) (0.001, 0.01 and 0.1 μM) were added giving a final volume of 200 μl. After subsequent stimulation with 1 μg/ml LPS for 24 h, the supernatants were harvested. The concentrations of TNF-α, IL-1β and IL-6 in culture supernatants were measured using mouse TNF-α, IL-1β and IL-6 ELISA kits (R&D Systems, USA), as per the instructions of the manufacturer
as §4, with “For” for “For the”, “medium.” for “medium [RPMI 1640 supplemented with 12 mM HEPES (pH 7.1), 0.05 mM 2-mercaptoethanol, 100 IU/mL penicillin, 100 μg/mL streptomycin and 10% FCS].”, “brachiatin D” for “peptaibol (brachiatin D)”, “manufacturer. […]” for “manufacturer”
For orientation: ELISA stands for enzyme-linked immunosorbent assay.

The next data set deals with IL-6. Kind of data set: IL-6 in LPS stimulated cell culture supernatant (ELISA). It counts as cell-based, mouse. The note with it: LPS 1 μg/ml, 24 h. On the procedure:
as §4
as §4, with “For” for “For the”, “medium.” for “medium [RPMI 1640 supplemented with 12 mM HEPES (pH 7.1), 0.05 mM 2-mercaptoethanol, 100 IU/mL penicillin, 100 μg/mL streptomycin and 10% FCS].”, “brachiatin D” for “peptaibol (brachiatin D)”, “manufacturer. […]” for “manufacturer”

A further data set has as its system IL-1β. The experiment in a line: IL-1β in LPS stimulated cell culture supernatant (ELISA). It counts as cell-based, mouse. The note with it: LPS 1 μg/ml, 24 h. On the procedure: as §4
as §4, with “For” for “For the”, “medium.” for “medium [RPMI 1640 supplemented with 12 mM HEPES (pH 7.1), 0.05 mM 2-mercaptoethanol, 100 IU/mL penicillin, 100 μg/mL streptomycin and 10% FCS].”, “brachiatin D” for “peptaibol (brachiatin D)”, “manufacturer. […]” for “manufacturer”

Another data set concerns NO. Kind of data set: Inhibition of nitric oxide (nitrite) in LPS treated macrophages. The class given is cell-based, mouse. On the procedure:
NO is a short-lived molecule. […] Large quantity of nitrite is produced by macrophage when stimulated with LPS. But when cells were treated with brachiatin D, it was observed that brachiatin D inhibited LPS stimulated production of nitrite (p<0.001 at 0.001 μM dose).

Values joined by “and” are separate entries in the source; they are usually repeats but may differ in a detail not shown here. Equal entries are not always repeated. Non-standard residues stand in square brackets, D forms with d. Residues, ends and D or L forms follow the SMILES beside them. *: point of attachment. Aib = CC(C)(N)C(=O)O; X1 = CCC(C)C(CO)N*

As for `O=c1[nH]cc(F)c(=O)[nH]1` [5-Fluorouracil, reference compound], the “% growth inhibition” value with A-549 is 75% and 73%; with THP-1 it was 83% and 88%. Further, the inhibition at 20 µM in the data set on A-549 (Homo sapiens, A549, A-549, 20 μM, read-out: % growth inhibition) was at most 75%; with THP-1 (Homo sapiens, THP-1, THP-1, 20 μM, read-out: % growth inhibition), at most 83%; in the data set with HOP-62 (Homo sapiens, HOP-62, HOP-62, 20 μM, read-out: % age growth inhibition), at most 81%. Moreover, in the data set with HOP-62 (HOP-62, 20 μM, 20 µM), the “% age growth inhibition” value was 81%.

Consider `COc1cccc2c1C(=O)c1c(O)c3c(c(O)c1C2=O)C[C@@](O)(C(=O)CO)C[C@@H]3O[C@H]1C[C@H](N)[C@H](O)[C@H](C)O1` [Adriyamycin], for which the figures for the “% growth inhibition” value with MCF-7 and in the data set on MCF-7 (1 µM) were 73% and at most 73%, respectively.

As to `CCC(C)C(CO)NC(=O)C1CCCN1C(=O)C(CC(C)C)NC(=O)C(CC(N)=O)NC(=O)C(C)(C)NC(=O)C1CCCN1C(=O)C(C)(C)NC(=O)C(CC(C)C)NC(=O)C(C)(C)NC(=O)C(CC(N)=O)NC(=O)C(C)(C)NC(C)=O` (stereo not drawn) [Brachiatin D, AcAib-Asn-Aib-Leu-Aib-Pro-Aib-Asn-Leu-Pro-Ileuol] (Ac-[Aib]N[Aib]L[Aib]P[Aib]NLP-X1; configuration not given here), the “% age growth inhibition” value in the data set with A-549 is recorded as 63%; with A-549 (listed as brachiatin D), at most 63%; in the data set on THP-1 (THP-1, 10 μM) it was 56%; in the data set on MCF-7 (MCF-7, 10 μM) it was 100%; with HOP-62 (HOP-62, 10 μM), 21%; in the data set with HOP-62 (HOP-62, 20 μM), 35%. In addition, the “% age growth inhibition” value with MiaPaCa-2 and in the data set with PC-3 was 100% each time. For the same compound, the “% growth inhibition” value was 96% in the data set on A-549, over 95% in the data set with A-549 (listed as brachiatin D), 77% in the data set with THP-1 and over 75% in the data set on THP-1 (listed as brachiatin D). In the data set with HOP-62 (HOP-62), the “sensitivity of the cell line to cytotoxic effects” value was “much resistance”. The “activity against lymphocyte proliferation” value in the data set on lymphocyte proliferation is listed as “good activity”. Further, in the data set on TNF-α, the “inhibition of TNF-α production” value is recorded as “up to 42%”. Also, the “effect on LPS induced IL-6” value in the data set on IL-6 is “inhibited”. In addition, the “effect on LPS induced IL-1β” value in the data set with IL-1β is “inhibited”. Moreover, the “LPS stimulated production of nitrite” value in the data set on NO (0.001 μM dose, p<0.001) is recorded as “inhibited”. Moreover, the NO production result with NO (0.1 μM, p<0.05) is reported as “Marginal increase”.
